{"source": "patent US20210010031A1", "about": "“LENTIVIRAL VECTORS FOR HIGH-TITER TRANSDUCTION OF PRIMARY HUMAN CELLS” (priority 2018, published 2021)", "key": {"HA-tagged FAM208A": {"target": "HA-tagged FAM208A (Homo sapiens, UniProt Q9UK61)", "sequence (Q9UK61 whole entry)": "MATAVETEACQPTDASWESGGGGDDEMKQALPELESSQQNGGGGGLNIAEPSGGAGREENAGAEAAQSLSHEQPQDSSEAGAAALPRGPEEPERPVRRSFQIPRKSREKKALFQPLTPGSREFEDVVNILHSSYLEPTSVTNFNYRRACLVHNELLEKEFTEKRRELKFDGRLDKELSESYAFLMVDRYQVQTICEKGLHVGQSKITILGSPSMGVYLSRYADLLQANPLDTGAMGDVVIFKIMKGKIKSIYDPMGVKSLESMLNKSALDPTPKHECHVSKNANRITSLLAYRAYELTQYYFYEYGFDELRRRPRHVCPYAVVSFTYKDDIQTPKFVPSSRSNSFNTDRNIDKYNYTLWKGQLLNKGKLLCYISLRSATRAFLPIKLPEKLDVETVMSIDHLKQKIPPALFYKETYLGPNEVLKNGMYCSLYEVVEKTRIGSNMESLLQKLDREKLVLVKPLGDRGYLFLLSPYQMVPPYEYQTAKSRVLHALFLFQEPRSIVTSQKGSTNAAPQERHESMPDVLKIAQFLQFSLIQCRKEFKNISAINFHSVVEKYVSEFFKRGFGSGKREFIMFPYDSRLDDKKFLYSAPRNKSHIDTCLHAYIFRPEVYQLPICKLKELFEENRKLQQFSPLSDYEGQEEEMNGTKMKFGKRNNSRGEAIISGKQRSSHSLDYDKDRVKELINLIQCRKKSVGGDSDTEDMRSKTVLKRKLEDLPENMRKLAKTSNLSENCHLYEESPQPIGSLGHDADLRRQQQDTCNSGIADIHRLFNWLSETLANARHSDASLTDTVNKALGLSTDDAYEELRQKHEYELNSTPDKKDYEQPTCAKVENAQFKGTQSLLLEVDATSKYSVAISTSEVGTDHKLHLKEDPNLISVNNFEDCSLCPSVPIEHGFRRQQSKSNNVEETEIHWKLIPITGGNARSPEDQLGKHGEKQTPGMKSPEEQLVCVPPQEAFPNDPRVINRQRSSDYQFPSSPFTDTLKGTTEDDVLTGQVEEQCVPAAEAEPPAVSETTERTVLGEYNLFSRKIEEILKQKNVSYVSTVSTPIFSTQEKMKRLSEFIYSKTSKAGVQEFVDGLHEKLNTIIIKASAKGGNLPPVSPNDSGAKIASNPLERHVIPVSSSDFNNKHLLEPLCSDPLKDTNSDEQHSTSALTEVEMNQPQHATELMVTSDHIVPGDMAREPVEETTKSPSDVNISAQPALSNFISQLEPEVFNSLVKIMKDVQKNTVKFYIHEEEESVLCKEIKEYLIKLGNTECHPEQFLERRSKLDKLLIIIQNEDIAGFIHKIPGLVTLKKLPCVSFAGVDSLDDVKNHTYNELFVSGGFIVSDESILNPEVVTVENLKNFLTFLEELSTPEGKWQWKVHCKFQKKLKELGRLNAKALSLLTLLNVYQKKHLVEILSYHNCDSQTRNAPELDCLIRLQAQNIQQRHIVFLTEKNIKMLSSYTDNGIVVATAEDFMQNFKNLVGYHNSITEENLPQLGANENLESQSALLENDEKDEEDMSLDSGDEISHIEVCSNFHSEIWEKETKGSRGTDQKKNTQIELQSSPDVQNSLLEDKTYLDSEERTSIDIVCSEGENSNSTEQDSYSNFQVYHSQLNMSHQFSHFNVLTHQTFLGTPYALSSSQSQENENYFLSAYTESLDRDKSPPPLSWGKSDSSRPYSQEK", "assay": "Co-immunoprecipitation of HA-FAM208A with FLAG-Vpx in HEK293 cells", "format": "binding", "details": "versus untreated cells with wild-type SIVMAC251 Vpx (FIG. 17H)", "from_the_text": "Degradation of SAMHD1 requires direct interaction with Vpx or Vpr. To determine if Vpx similarly associates with proteins of the HUSH complex, HA-tagged FAM208A was co-transfected into HEK293 cells with FLAG-tagged SIVMAC251 Vpx or SIVRCM02CM8081 Vpx. When anti-FLAG antibody was used to immunoprecipitate either of the two Vpx proteins from the soluble cell lysate, HA-FAM208A was detected in the immunoprecipitate (FIG. 17H). The strength of the FAM208A signal in the Vpx pull-out increased when the co-transfected HEK293 cells were incubated with the proteasome inhibitor PR171, or when wild-type SIVMAC251 Vpx was replaced in the transfection by a mutant (Q76A) that is incapable of binding DCAF1 (FIG. 17H and FIGS. 21D and 21E).\nCells were washed in PBS, counted, normalized for cell number, and lysed directly in 1×SDS-PAGE sample buffer. Samples were run on NuPage 4-12% Bis-Tris gels followed by blotting onto nitrocellulose membranes. Primary antibodies used: FAM208A (Atlas, HPA00875), MPHOSPH8 (Proteintech, 16796-1-AP), PPHLN1 (Sigma, HPA038902), SETDB1 (Proteintech 11231-1-AP), DCAF1 (Proteintech, 11612-1-AP), FLAG (Novus, NB600-345), FLAG (Sigma, F1804, used for IP), and HA (Biolegend, 901501)."}, "Jurkat LTR-gfp cells": {"test_system": "Jurkat LTR-gfp cells", "assay": "HIV-1 LTR-gfp provirus pool in Jurkat T cells", "format": "cell-based, human", "details": "four weeks after transduction with LTR-GFP (FIG. 22B)", "from_the_text": "J-Lat A1 was selected to have a silent HIV-1 LTR-driven provirus with the ability to reactivate in response to TNFα^31. The unique provirus within a clone such as J-Lat A1 may be sensitive to position-dependent silencing effects and therefore may not accurately reflect the sensitivity of a population of HIV-1 proviruses to transcriptional activation by Vpx or to silencing by FAM208A. To address the effect of Vpx and FAM208A on a population of proviruses with diverse integration sites, Jurkat T cells were transduced with an HIV-1 LTR driven reporter vector (LTR-gfp) that retains complete LTRs, tat, and rev, but has a frameshift mutation in env, an ngfr reporter gene in place of nef, and gfp in place of gag, pol, vif, and vpr (FIG. 18D). Four weeks after transduction with LTR-GFP, the presence of latent proviruses within the pool of Jurkat cells was confirmed by reactivation with either TNFα or TCR-stimulation (FIG. 22B). […] Compared with control cells, vpx or FAM208A knockdown increased the percentage of GFP cells, whether cells were treated with TNFα or not (FIGS. 18E and 18F). […] Additionally, expression vectors for SIVMND25440 Vpx, SIVRCM02CM8081 Vpx, SIVMND1GB1 Vpr, or […]1 Vpr all increased GFP expression in Jurkat LTR-gfp cells (FIG. 22C). […]\nCells were fixed in BD Cytofix Buffer prior to data acquisition on a BD C6 Accuri. Data was analyzed in FlowJo."}}}
{"compound": "CC(C)C[C@H](NC(=O)[C@H](CCc1ccccc1)NC(=O)CN1CCOCC1)C(=O)N[C@@H](Cc1ccccc1)C(=O)N[C@@H](CC(C)C)C(=O)[C@@]1(C)CO1", "note": "[PR171]", "values": [{"measurement": "strength of the FAM208A signal in the Vpx pull-out", "setting": "HA-tagged FAM208A", "value": "increased"}]}
{"compound": "TNFα", "values": [{"measurement": "reactivation of latent proviruses", "setting": "Jurkat LTR-gfp cells", "value": "reactivation"}]}
